Reference: patent US20080003244A1, “Inflammation and Oxidative Stress Reducing Compostion for Topical or Oral Administration” (priority 2006, published 2008)
Several values for one entry are separate records, joined by “and”; a condition that tells them apart may be missing. Identical values can stand only once.

Tested on: A549 human lung epithelial cells
Experiment: H2O2 oxidative stress protection, live cell count (trypan blue dye exclusion)
Type: cell-based
Details: for Live cell Number: 4 hours, A549
Method: A549 human lung epithelial cells were seeded and treated with 2.5 mM H202 with or without lipid for 4 hours. Cells were washed and trypsinized and live cells were counted. Test Sample Composition—The extract product titled LP 0817, example 1, was mixed with water at a 30% concentration yielding a compostion of Lipid Extract 23%, Lipoic Acid 7%, Water 70%. Lipid extract (produced by alcohol extraction process cited in example 1 without lipoic acid component)—23% lipids/77% water and lipoic acid at 7% concentration tested separately. 210 mg lipoic acid was dissolved with 2.8 ml. DMSO. (93% DMSO and 7% Lipoic Acid.) This is 100% solution. This working solution was diluted to 5%, 2%, 1% to use for hydrogen peroxide study. A549 human lung epithelial cells (1.5×10^5/well in 6 well dish) were seeded and treated with 2.5 mM H202 with or without lipid for 4 hours. Cells were washed and trypsinized and live cells (trypan blue dye exclusion assay) were counted. Cell number is represented as 10^4.

O=C(O)CCCCC1CCSS1 (stereo not shown) [Lipoic Acid 7%, lipoic acid]
Live cell Number (7% lipoic acid in DMSO working solution diluted to 1% + H2O2 (2.5 mM)): 13 10^4 and 14 10^4 | Live cell Number (7% lipoic acid in DMSO working solution diluted to 2% + H2O2 (2.5 mM)): 14 10^4 | Live cell Number (7% lipoic acid in DMSO working solution diluted to 5% + H2O2 (2.5 mM)): 10 10^4 and 12 10^4 | Protection of cells from H2O2 treatment/damage (A549, 2.5 mM H2O2, 4 hours): Neither Lipid extract nor Lipoic acid protected the cells from H202 damage
